Laboratory results reported in ChEMBL document CHEMBL1201862, “PubChem BioAssay data set” (2004).
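Protocol summary: plate cells (96-well), add compound at 5 concentrations, incubate 48 h, interpolate endpoints linearly. GI50: concentration for 50% inhibition of growth.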 Activity calls are given as the source filed them. Cut-off read from the data, not from the text of the source: active = GI50 up to about 1.1 µM and inactive = higher.

Tests used:
Assay in all cases: inhibition of tumour cell growth, NCI panel, 48 h
[1] = system: 786-0
[2] = system: A498
[3] = system: A549
[4] = system: ACHN
[5] = system: CAKI-1
[6] = system: CCRF-CEM
[7] = system: COLO 205
[8] = system: DLD-1
[9] = system: DMS-114
[10] = system: DMS-273
[11] = system: EKVX
[12] = system: HCC 2998
[13] = system: HCT-116
[14] = system: HCT-15
[15] = system: HL-60
[16] = system: HOP-18
[17] = system: HOP-62
[18] = system: HOP-92
[19] = system: HT-29
[20] = system: IGROV-1
[21] = system: K562
[22] = system: KM-20L2
[23] = system: KM12
[24] = system: LOX IMVI
[25] = system: LXFL 529
[26] = system: M14
[27] = system: MOLT-4
[28] = system: Malme-3M
[29] = system: NCI-H226
[30] = system: NCI-H23
[31] = system: NCI-H460
[32] = system: NCI-H522
[33] = system: OVCAR-3
[34] = system: OVCAR-4
[35] = system: OVCAR-5
[36] = system: OVCAR-8
[37] = system: RPMI-8226
[38] = system: RXF 393
[39] = system: SF-268
[40] = system: SF-295
[41] = system: SF-539
[42] = system: SK-MEL-28
[43] = system: SK-MEL-2
[44] = system: SK-MEL-5
[45] = system: SK-OV-3
[46] = system: SN12C
[47] = system: SNB-19
[48] = system: SNB-75
[49] = system: SW-620
[50] = system: TK-10
[51] = system: U-251
[52] = system: UACC-257
[53] = system: UACC-62
[54] = system: UO-31
[55] = system: XF498
[56] = system: M19-MEL
[57] = system: SNB-78

In the case of `CNS(=O)(=O)NN(C)S(=O)(=O)c1ccc(F)cc1`, the GI50 [1] was > 100 µM (inactive), the GI50 [2] was > 100 µM (inactive) and the GI50 [3] was > 100 µM (inactive). For the same compound, the GI50 [4] was > 100 µM (inactive), the GI50 [5] was > 100 µM (inactive) and the GI50 [6] was > 100 µM (inactive). The GI50 [7] was > 100 µM (inactive), the GI50 [8] was > 100 µM (inactive) and the GI50 [9] was > 100 µM (inactive). The GI50 [10] was > 100 µM (inactive), the GI50 [11] was > 100 µM (inactive) and the GI50 [12] was > 100 µM (inactive). For the same compound, the GI50 [13] was > 100 µM (inactive), the GI50 [14] was over 100 µM and the GI50 [15] was > 100 µM (inactive). For the same compound, the GI50 [16] was > 100 µM (inactive), the GI50 [17] was > 100 µM (inactive) and the GI50 [18] was > 100 µM (inactive). For the same compound, the GI50 [19] was > 100 µM (inactive), the GI50 [20] was > 100 µM (inactive) and the GI50 [21] was > 100 µM (inactive). The GI50 [22] was > 100 µM (inactive), the GI50 [23] was > 100 µM (inactive) and the GI50 [24] was 90.2 µM (inactive). The GI50 [25] was > 100 µM (inactive), the GI50 [26] was > 100 µM (inactive) and the GI50 [27] was > 100 µM (inactive). The GI50 [28] was > 100 µM (inactive), the GI50 [29] was > 100 µM (inactive) and the GI50 [30] was > 100 µM (inactive). For the same compound, the GI50 [31] was 40.7 µM (inactive), the GI50 [32] was > 100 µM (inactive) and the GI50 [33] was > 100 µM (inactive). For the same compound, the GI50 [34] was > 100 µM (inactive), the GI50 [35] was > 100 µM (inactive) and the GI50 [36] was > 100 µM (inactive). For the same compound, the GI50 [37] was > 100 µM (inactive), the GI50 [38] was > 100 µM (inactive) and the GI50 [39] was > 100 µM (inactive). For the same compound, the GI50 [40] was > 100 µM (inactive), the GI50 [41] was > 100 µM (inactive) and the GI50 [42] was > 100 µM (inactive). For the same compound, the GI50 [43] was > 100 µM (inactive), the GI50 [44] was > 100 µM (inactive) and the GI50 [45] was > 100 µM (inactive). For the same compound, the GI50 [46] was > 100 µM (inactive), the GI50 [47] was > 100 µM (inactive) and the GI50 [48] was 47 µM (inactive). For the same compound, the GI50 [49] was > 100 µM (inactive), the GI50 [50] was > 100 µM (inactive) and the GI50 [51] was > 100 µM (inactive). The GI50 [52] was > 100 µM (inactive), the GI50 [53] was > 100 µM (inactive) and the GI50 [54] was > 100 µM (inactive). For the same compound, the GI50 [55] was > 100 µM (inactive).
In the case of `COC(=O)C1CCc2nnc(-c3ccccc3)n21` (stereo not given), the GI50 [1] was > 100 µM (inactive), the GI50 [2] was > 100 µM (inactive) and the GI50 [3] was > 100 µM (inactive). The GI50 [4] was > 100 µM (inactive), the GI50 [5] was > 100 µM (inactive) and the GI50 [6] was > 100 µM (inactive). For the same compound, the GI50 [7] was > 100 µM (inactive), the GI50 [8] was > 100 µM (inactive) and the GI50 [9] was > 100 µM (inactive). For the same compound, the GI50 [10] was > 10 µM (inactive), the GI50 [11] was > 100 µM (inactive) and the GI50 [12] was > 100 µM (inactive). The GI50 [13] was > 100 µM (inactive), the GI50 [14] was over 100 µM and the GI50 [15] was > 100 µM (inactive). The GI50 [17] was > 100 µM (inactive), the GI50 [18] was > 100 µM (inactive) and the GI50 [19] was > 100 µM (inactive). The GI50 [20] was > 100 µM (inactive), the GI50 [21] was > 100 µM (inactive) and the GI50 [22] was > 100 µM (inactive). The GI50 [23] was > 100 µM (inactive), the GI50 [24] was > 100 µM (inactive) and the GI50 [25] was > 100 µM (inactive). For the same compound, the GI50 [26] was > 100 µM (inactive), the GI50 [56] was > 100 µM (inactive) and the GI50 [27] was > 100 µM (inactive). The GI50 [28] was > 100 µM (inactive), the GI50 [29] was > 100 µM (inactive) and the GI50 [30] was > 100 µM (inactive). The GI50 [31] was > 100 µM (inactive), the GI50 [32] was > 100 µM (inactive) and the GI50 [33] was > 100 µM (inactive). The GI50 [34] was > 100 µM (inactive), the GI50 [35] was > 100 µM (inactive) and the GI50 [36] was > 100 µM (inactive). The GI50 [37] was > 100 µM (inactive), the GI50 [38] was > 100 µM (inactive) and the GI50 [39] was > 100 µM (inactive). The GI50 [40] was > 100 µM (inactive), the GI50 [41] was > 100 µM (inactive) and the GI50 [42] was > 100 µM (inactive). For the same compound, the GI50 [43] was > 100 µM (inactive), the GI50 [44] was > 100 µM (inactive) and the GI50 [46] was > 100 µM (inactive). The GI50 [47] was > 100 µM (inactive), the GI50 [48] was > 100 µM (inactive) and the GI50 [57] was > 100 µM (inactive). For the same compound, the GI50 [49] was > 100 µM (inactive), the GI50 [50] was > 100 µM (inactive) and the GI50 [51] was > 100 µM (inactive). The GI50 [52] was > 100 µM (inactive), the GI50 [53] was > 100 µM (inactive) and the GI50 [54] was > 100 µM (inactive). For the same compound, the GI50 [55] was > 100 µM (inactive).
